These results are taken from US10175256B2, “Compositions and methods utilizing lysophosphatidylcholine scaffolds” (National University Of Singapore, priority 2013, dated 2019).

Entries after “also recorded” stand apart in the source; their conditions may differ.

Data set [1] deals with T1, mouse Mfsd2a (Mus musculus, UniProt Q9DA75).
T1 construct: expressed in transfected cells; host or cells: HEK293
T1 sequence (Q9DA75 1-534): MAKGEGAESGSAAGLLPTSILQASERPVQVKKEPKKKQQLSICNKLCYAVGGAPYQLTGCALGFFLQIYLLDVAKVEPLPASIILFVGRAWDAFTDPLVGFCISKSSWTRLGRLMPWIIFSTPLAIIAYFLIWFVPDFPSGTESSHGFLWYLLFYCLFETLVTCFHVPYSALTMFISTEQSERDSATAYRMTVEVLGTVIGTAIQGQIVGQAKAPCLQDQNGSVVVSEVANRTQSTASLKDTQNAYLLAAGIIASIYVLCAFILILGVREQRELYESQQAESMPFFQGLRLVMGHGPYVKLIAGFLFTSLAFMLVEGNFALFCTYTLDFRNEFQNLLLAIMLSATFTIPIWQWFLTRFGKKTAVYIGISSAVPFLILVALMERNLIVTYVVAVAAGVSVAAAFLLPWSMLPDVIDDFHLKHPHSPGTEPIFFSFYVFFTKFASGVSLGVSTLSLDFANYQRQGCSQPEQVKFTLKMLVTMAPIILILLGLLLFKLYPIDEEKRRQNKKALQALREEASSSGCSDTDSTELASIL
Description: TLC analysis of phospholipids (bio-incorporation of LPC into PC). It is filed as cell-based. As for the experimental part:
HEK293 cells overexpressing with pcDNA3.1Mfsd2a (WT), pcDNA3.1Mfsd2aD92A (D92A), pcDNA3.1Mfsd2aD96A, or pcDNA3.1 (mock) plasmids or human Mfsd2a (in Sport6 plasmid) were washed once with serum-free DMEM medium before incubation with 50 μM radiolabeled LPC [^14C]oleate, LPC [^14C]DHA or with 50 μM TopFluor-LPC and NBD-LPC. Lipids were extracted twice with HIP buffer for 30 mins. Lipids were dried with nitrogen stream and reconstituted in chloroform and spotted on TLC plates (Milipore). Solvent for phospholipid separation was chloroform/methanol/ammonia solution (25%) (50:25:6, per volume). TLC plates of radiolabeled phospholipids were dried for 30 mins and exposed overnight to Phosphorscreens and scanned with Typhoon FLA 9000 scanner (Agilent). TLC plates of fluorescent phospholipids were scanned with Typhoon FLA 9000 scanner and quantified using Imagequant software.

In data set [2] the target is T1, mouse Mfsd2a. Put plainly: In vitro transport (uptake) of radiolabeled and fluorescent LPCs in HEK293 cells overexpressing Mfsd2a. It is filed as cell-based. The conditions noted are these: for comparison of Mfsd2a-mediated uptake (capacity to transport): HEK293 cells expressing Mfsd2a. How it is done:
Uptake assays of radiolabeled LPCs or fluorescent LPCs were tested using HEK293 cells overexpressing Mfsd2a and mutants constructs. Briefly, HEK293 cells at 90-95% confluency were transfected using LIPOFECTAMINE 2000 (Invitrogen) with pcDNA3.1Mfsd2a (WT), pcDNA3.1Mfsd2aD92A (D92A), pcDNA3.1Mfsd2aD96A (D96A), or pcDNA3.1 (mock) plasmids. Uptake assays were performed after 24 hours of transfections. Prior to ligand incubation, HEK293 transfected cells were washed with serum-free DMEM before assays. For concentration and time dependent assays, radiolabeled LPCs were diluted in pre-warmed DMEM media. For sodium dependent assay, radiolabeled LPCs were diluted in transport buffer (5 mM KCl, 10 mM Hepes, pH 7.4) with 150 mM NaCl or 150 mM choline chloride. For sodium concentration dependent assays, any reductions in the concentration of NaCl were replaced by choline chloride in order to maintain a constant cation molarity of 150 mM. All assays were performed in 12 well-plates with triplicates and at 37° C.

Another data set deals with T2, Mfsd2a (Mus musculus, UniProt Q9DA75).
T2 sequence (Q9DA75 1-534): T1 sequence (Q9DA75 1-534)
Description: In vivo transport of radiolabeled, fluorescent LPCs and unesterified DHA in Mfsd2a KO and wild-type mice. Set-up: from tissue; host or cells: living mice; brain (blood-brain barrier endothelium), liver, heart; fetal brain. How it is done: Male and female mice of age of 6-8 weeks were IV injected with 75 μl of 20 mM radiolabeled LPC-[…], 100 μl of 10 mM LPC-[^14C]DHA/BSA complex or 82 μl of 12.2 mM [^14C]DHA/BSA complex in a total volume of 150 μl of phosphate-buffered saline. At 2 hours post injection, mice were anesthetized and perfused for 5 mins with PBS containing 0.5% BSA in order to remove blood and lipid tracer bound to the brain vasculature. Tissues were harvested for lipid extraction. For lipid extraction, tissues were weighed and similar amounts of tissues were homogenized in chloroform/methanol. Lipids from the organic phase were mixed with scintillant and scintillation counted. Similar experiments were also performed with an injection of 300 μg NBD-LPC/BSA or 300 μg TopFluor-LPC/BSA complex per mouse. In this experiment, mice were perfused for 5 mins with PBS followed 15 mins perfusion with 4% paraformaldehyde (PFA) for tissue fixation. Brain sections of WT and KO with a thickness of 40 μm were prepared and scanned using green fluorescence mode in Typhoon FLA 9000 scanner (Agilent). NBD-LPC accumulation was expressed as fluorescence of each section per its area. Dietary DHA transport from mother to fetus was also measured using [^14C]DHA/BSA complex. Pregnant females at e18.5 was gavaged with bolus of [^14C]DHA/BSA complex (200 μl of 10 mM [^14C]DHA/BSA/mouse). Brain of fetuses were collected 20 hours post-gavage and weighed. Lipid extraction and radioactivity were performed as described above.

For the molecule `CCCCCCCCCCCCCCCCCC(=O)OC[C@@H](O)COP(=O)([O-])OCC[N+](C)(C)C` [LPC-18:0], the “effect of cold LPC on transport of NBD-LPC” value at mouse Mfsd2a [1] (10-fold molar excess of competitor) was “suppressed”.

With `CCCCCCCCCCCCCCCC(=O)OC[C@@H](O)COP(=O)([O-])OCC[N+](C)(C)C` [LPC-[^3H]palmitate, 1-palmitoyl 2-lysophosphocholine], the “comparison of Mfsd2a-mediated uptake (capacity to transport)” value at mouse Mfsd2a [2] is “highest capacity to transport LPC-DHA, followed by LPC-oleate, and LPC-palmitate”.

As to `CCC=CCC=CCC=CCC=CCC=CCC=CCCC(=O)OC[C@@H](O)COP(=O)([O-])OCC[N+](C)(C)C` [LPC-[^14C]DHA, 1-docosahexaenoyl 2-lysophosphocholine], the “reduction in brain uptake in Mfsd2a KO mice compared with wild-type” value at Mfsd2a (i.v. injection, 2 hrs post-injection) is given as “more than 90%”. Besides, on Mfsd2a (i.v. injection, liver and heart, 2 hrs), the “uptake in peripheral tissues of KO mice compared with wild-type” value is “not decreased”. At Mfsd2a (wild-type brain, same amount injected i.v., 2 hrs), the “brain uptake, unesterified DHA compared with LPC-DHA” value was “far greater”. The “conversion of transported LPCs into PCs” value at mouse Mfsd2a [1] (HEK293 cells expressing Mfsd2a, radiolabeled LPC, TLC) is on record as “rapid conversion of transported LPCs into PCs”. For the same molecule, at mouse Mfsd2a [2], the “comparison of Mfsd2a-mediated uptake (capacity to transport)” value was “highest capacity”. Moreover, the “uptake of radiolabeled LPC by cells expressing Mfsd2a relative to control cells” value on mouse Mfsd2a [2] (HEK293 cells, wild-type Mfsd2a vs mock, LPC/BSA, 30 mins) is reported as “enhanced concentration-dependent uptake”.

`C[N+](C)(C)CCOP(=O)([O-])OC[C@H](O)COC(=O)CCCCCCCCCCCNc1ccc([N+](=O)[O-])c2nonc12` [NBD-LPC]: the “brain uptake (fluorescence of brain sections) in KO compared with wild-type” value at Mfsd2a (300 μg fluorescent LPC/BSA complex i.v.) is listed as “significantly reduced”. Besides, the “bio-incorporation of fluorescent LPC into phospholipids (PC)” value at mouse Mfsd2a [1] (HEK293 cells, 50 μM, TLC) is recorded as “bio-incorporated into membrane phospholipids”. For the same molecule, at mouse Mfsd2a [2] (HEK293 cells, vs mock, D92A, D96A), the “uptake/transport of fluorescent lysolipid by cells expressing wild-type Mfsd2a” value is recorded as “transported by Mfsd2a; also recorded: significantly enhanced uptake activity”.
